Experimental data published in patent US8088806B2 (Achillion Pharmaceuticals, Inc., priority 2005, dated 2012).

test system: HCV replicon; experiment: Replicon based assay of HCV replication inhibition (NPT ELISA); type: cell-based, Hepatitis C virus; conditions: Hepatitis C virus, Huh-7, 72 h, Table I; Huh-7 HCV replicon-containing cells, three days; read-out: Activity
Procedure, shortened: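 NPT (neomycin phosphotransferase) content, proportional to replicon replication, quantified by capture ELISA on day four. Before that, replicon-bearing Huh-7 cells in G418-free screening medium were exposed three days at 37° C to compound, typically six doses from 10 to 0.03 micromolar, with equal DMSO across wells.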

SMILES	EC50
CCCCCOc1ccc(Nc2ncc(C(=O)NCc3ccc(S(N)(=O)=O)cc3)s2)cc1C(F)(F)F [compound 151, N-(4-aminosulfonyl-benzyl)-2-(4-(pentyloxy)-3-(trifluoromethyl)phenylamino)-thiazole-5-carboxamide]	> 10 µM
CCCCCOc1ccc(Nc2nc(C(=O)NCc3ccc(S(N)(=O)=O)cc3)cs2)cc1C(F)(F)F [compound 153, 2-(4-(pentyloxy)-3-(trifluorornethyl)phenylamino)-N-(4-aminosulfonylbenzyl)thiazole-4-carboxamide]	1 to 10 µM
CCCCCOc1ccc(Nc2nc(-c3ccc(C)nc3)cs2)cc1C(F)(F)F [compound 154, N-(3-(trifluoromethyl)-4-(pentyloxy)phenyl)-4-(6-methylpyridin-3-yl)thiazol-2-amine]	< 1 µM
CCCCCOc1ccc(Nc2nc(-c3ccc(C(=O)O)cc3)cs2)cc1C(F)(F)F [compound 155, 4-(2-(3-(trifluoromethyl)-4-(pentyloxy)phenylamino)thiazol-4-yl)benzoic acid]	< 1 µM
CCCCCOc1ccc(Nc2nc(-c3cnccn3)cs2)cc1C(F)(F)F [compound 156, N-(3-(trifluoromethyl)-4-(pentyloxy)phenyl)-4-(pyrazin-2-yl)thiazol-2-amine]	< 1 µM
CCCCCOc1ccc(N(C)c2nc(-c3cccnc3)cs2)cc1C(F)(F)F [compound 157, N-(3-(trifluoromethyl)-4-(pentyloxy)phenyl)-N-methyl-4-(pyridin-3-yl)thiazol-2-amine]	< 1 µM
CCCCCOc1ccc(N(C)c2nc(C(=O)O)cs2)cc1C(F)(F)F [compound 158, 2-(N-(3-(trifluoromethyl)-4-(pentyloxy)phenyl)-N-methylamino)thiazole-4-carboxylic acid]	> 10 µM
CCCCCOc1ccc(N(C)c2nc(C(=O)Nc3ccc(Cl)cc3)cs2)cc1C(F)(F)F [compound 159, 2-(N-(3-(trifluoromethyl)-4-(pentyloxy)phenyl)-N-methylamino)-N-(4-chlorophenyl)thiazole-4-carboxamide]	> 10 µM
CCCCCOc1ccc(N(C)c2nc(C(=O)Nc3ccc(C#N)cc3)cs2)cc1C(F)(F)F [compound 160, 2-(N-(3-(trifluoromethyl)-4-(pentyloxy)phenyl)-N-methylamino)-N-(4-cyanophenyl)thiazole-4-carboxamide]	> 10 µM
CCCCCOc1ccc(Nc2nc(C(N)CC(C)C)cs2)cc1C(F)(F)F (stereo not shown) [compound 161, 4-(1-amino-3-methylbutyl)-N-(3-(trifluoromethyl)-4-(pentyloxy)phenyl)thiazol-2-amine]	1 to 10 µM
CCCCCOc1ccc(N(C)c2nc(C(=O)Nc3cccnc3)cs2)cc1C(F)(F)F [compound 162, 2-(N-(3-(trifluoromethyl)-4-(pentyloxy)phenyl)-N-methylamino)-N-(pyridin-3-yl)thiazole-4-carboxamide]	> 10 µM
CCCCCOc1ccc(Nc2ncc(C(=O)Nc3cccnc3)s2)cc1C(F)(F)F [compound 163, 2-(3-(trifluoromethyl)-4-(pentyloxy)phenylamino)-N-(pyridin-3-yl)thiazole-5-carboxamide]	< 1 µM
COc1ccc(OC)c(Nc2nc(-c3c(C)nc4sccn34)cs2)c1 [compound 164, N-(2,5-dimethoxyphenyl)-4-(6-methylimidazo[2,1-b]thiazol-5-yl)thiazol-2-amine]	> 10 µM
COc1ccc(Nc2nc(-c3c(C)nc4sccn34)cs2)cc1 [compound 165, N-(4-methoxyphenyl)-4-(6-methylimidazo[2,1-b]thiazol-5-yl)thiazol-2-amine]	< 1 µM
CC(=O)c1cccc(Nc2nc(-c3c(C)nc4cc(C)ccn34)cs2)c1 [compound 167, 1-(3-(4-(2,7-dimethylH-imidazo[1,2-a]pyridin-3-yl)thiazol-2-ylamino)phenyl)ethanone]	> 10 µM
Cc1c(-c2csc(Nc3ccccc3)n2)sc2ncnn12 [compound 168, 4-(6-methylthiazolo[3,2-b][1,2,4]triazol-5-yl)-N-phenylthiazol-2-amine]	1 to 10 µM
